Patent publication US20180099931A1 (AbbVie S.à.r.l., priority 2016, published 2018)
pEC50: −log10 of the molar value. Like-named read-outs stand apart in the source and are kept apart here.

Biological target: T1, F508delCFTR (Homo sapiens, UniProt P13569, DEL508-508)
T1 construct: expressed in transfected cells; host or cells: CFBE41o- human lung-derived epithelial cells (CFBE4lo-F508delCFTR-HRP), doxycycline-inducible
Test: Cell Surface Expression-Horse Radish Peroxidase (CSE-HRP) Assay;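 on Maximum % activity (with co-corrector): co-corrector and positive control are both the same reference corrector at 2 µM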;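 on Maximum % activity (without co-corrector): percent of the 2 µM on-plate positive control corrector response above DMSO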
Type: cell-based
Conditions: for Maximum % activity (with co-corrector) / Emax: maximum at any tested concentration, normalized to on-plate positive control; for Emax: read-out: Maximum % activity (without co-corrector)

[1] = CSE-HRP, test compound without co-corrector, read-out: EC50 (without co-corrector)
[2] = CSE-HRP, with co-corrector (2 μM of 3-[(2R,4R)-4-({[1-(2,2-difluoro-1,3-benzodioxol-5-yl)cyclopropyl]carbonyl}amino)-7-methoxy-3,4-dihydro-2H-chromen-2-yl]benzoic acid), read-out: EC50 (with co-corrector)
[3] = CSE-HRP, with co-corrector (2 μM)
[4] = test compound without co-corrector
[5] = test compound without co-corrector, read-out: EC50 (without co-corrector)
[6] = with co-corrector (2 μM of 3-[(2R,4R)-4-({[1-(2,2-difluoro-1,3-benzodioxol-5-yl)cyclopropyl]carbonyl}amino)-7-methoxy-3,4-dihydro-2H-chromen-2-yl]benzoic acid)
[7] = with co-corrector (2 μM of 3-[(2R,4R)-4-({[1-(2,2-difluoro-1,3-benzodioxol-5-yl)cyclopropyl]carbonyl}amino)-7-methoxy-3,4-dihydro-2H-chromen-2-yl]benzoic acid), read-out: EC50 (with co-corrector)

T1 sequence (P13569 with tags, fused parts or gaps DEL508-508): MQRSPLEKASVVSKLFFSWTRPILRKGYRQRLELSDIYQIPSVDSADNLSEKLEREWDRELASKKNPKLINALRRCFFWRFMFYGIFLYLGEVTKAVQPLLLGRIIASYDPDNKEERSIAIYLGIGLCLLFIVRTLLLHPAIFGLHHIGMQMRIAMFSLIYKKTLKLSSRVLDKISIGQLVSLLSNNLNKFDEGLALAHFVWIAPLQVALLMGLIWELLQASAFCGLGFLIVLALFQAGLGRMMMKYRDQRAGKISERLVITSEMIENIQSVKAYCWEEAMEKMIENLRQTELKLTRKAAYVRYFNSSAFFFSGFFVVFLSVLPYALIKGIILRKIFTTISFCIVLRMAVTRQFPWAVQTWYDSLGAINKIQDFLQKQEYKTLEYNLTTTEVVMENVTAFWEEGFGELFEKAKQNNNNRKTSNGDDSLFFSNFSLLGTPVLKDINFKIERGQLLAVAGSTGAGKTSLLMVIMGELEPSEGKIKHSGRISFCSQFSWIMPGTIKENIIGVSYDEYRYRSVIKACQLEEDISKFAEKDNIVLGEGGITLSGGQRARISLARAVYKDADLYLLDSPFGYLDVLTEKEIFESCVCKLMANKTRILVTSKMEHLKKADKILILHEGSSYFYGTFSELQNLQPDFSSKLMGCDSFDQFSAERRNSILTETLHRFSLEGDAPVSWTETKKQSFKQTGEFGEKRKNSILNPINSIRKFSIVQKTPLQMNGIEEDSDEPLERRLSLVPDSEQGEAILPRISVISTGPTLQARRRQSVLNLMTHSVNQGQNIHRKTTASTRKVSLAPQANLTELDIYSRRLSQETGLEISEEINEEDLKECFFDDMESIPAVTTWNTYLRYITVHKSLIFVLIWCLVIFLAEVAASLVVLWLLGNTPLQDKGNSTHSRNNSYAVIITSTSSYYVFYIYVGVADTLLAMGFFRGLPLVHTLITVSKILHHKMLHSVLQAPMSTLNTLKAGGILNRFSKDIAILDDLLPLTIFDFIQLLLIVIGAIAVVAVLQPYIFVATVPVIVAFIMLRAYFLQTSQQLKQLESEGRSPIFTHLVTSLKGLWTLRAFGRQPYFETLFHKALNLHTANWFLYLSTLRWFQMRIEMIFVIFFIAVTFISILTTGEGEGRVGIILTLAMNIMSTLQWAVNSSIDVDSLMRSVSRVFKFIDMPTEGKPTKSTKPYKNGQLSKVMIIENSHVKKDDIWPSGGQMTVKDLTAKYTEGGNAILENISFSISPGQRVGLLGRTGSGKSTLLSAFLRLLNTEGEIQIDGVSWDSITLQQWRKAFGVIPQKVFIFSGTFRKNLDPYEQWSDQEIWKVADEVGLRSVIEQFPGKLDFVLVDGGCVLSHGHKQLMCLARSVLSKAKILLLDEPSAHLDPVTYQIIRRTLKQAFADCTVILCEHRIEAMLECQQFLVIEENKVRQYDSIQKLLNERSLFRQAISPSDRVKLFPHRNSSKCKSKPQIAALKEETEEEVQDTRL

Compound | pEC50 [1] | pEC50 [2] | Maximum % activity (with co-corrector) [3] | Emax (CSE-HRP, without co-corrector) [%] | Emax [4] [%] | pEC50 [5] | Maximum % activity (with co-corrector) [6] | pEC50 [7] | Maximum % activity (with co-corrector) (with co-corrector (2 μM)) | Emax (without co-corrector) [%]
COc1cccc(Cl)c1CN[C@@H]1[C@@H](C(C)(C)C)[C@H](C(=O)O)N(C(=O)C2CCCCC2)[C@@H]1c1ccccc1 (racemic) [II-10] | 5.00 to 6.00 | 5.00 to 6.00 | +++ (≥350) | 100 to 200 |  |  |  |  |  | 
COc1ccc(C(C)(C)C)cc1CN[C@H]1[C@H](C(C)(C)C)[C@@H](C(=O)O)N(C(=O)c2cnn(-c3ccccc3)c2C)[C@H]1c1ccccc1 [II-361] |  |  |  |  | > 200 | 5.00 to 6.00 | +++ (≥350) | > 6.00 |  | 
COc1ccc(C(C)(C)C)cc1CN[C@H]1[C@H](C(C)(C)C)[C@@H](C(=O)O)N(C(=O)[C@@H]2CCCO2)[C@H]1c1ccccc1Br [Example I-294] | 5.00 to 6.00 | > 6.00 | +++ (≥350) | > 200 |  |  |  |  |  | 
COc1cc(C(F)(F)F)ccc1CN[C@@H]1[C@@H](C(C)(C)C)[C@H](C(=O)O)N(C(=O)[C@@H]2CCCCO2)[C@@H]1c1ccccc1 (racemic) [II-49] | 5.00 to 6.00 | 5.00 to 6.00 | +++ (≥350) | 100 to 200 |  |  |  |  |  | 
COc1ncc(C(F)(F)F)cc1CN[C@H]1[C@H](C(C)(C)C)[C@@H](C(=O)O)N(C(=O)C2CCCCC2)[C@H]1c1ccccc1F [Example I-110] |  |  |  |  |  | > 6.00 |  | > 6.00 | +++ (≥350) | < 100
COc1ncc(C2CCCC2)cc1CN[C@H]1[C@H](C(C)(C)C)[C@@H](C(=O)O)N(C(=O)C2CCCCC2)[C@H]1c1ccccc1 [Example I-73] |  |  |  |  |  | > 6.00 |  | > 6.00 | +++ (≥350) | > 200
COc1ccc(C(C)(C)C)cc1CN[C@H]1[C@H](C(C)(C)C)[C@@H](C(=O)O)N(C(=O)[C@@H]2CCCO2)[C@H]1c1cccnc1N(C)C [Example I-284] | 5.00 to 6.00 | 5.00 to 6.00 | +++ (≥350) | > 200 |  |  |  |  |  | 
COc1ccc(Br)cc1CN[C@H]1[C@H](C(C)(C)C)[C@@H](C(=O)O)N(C(=O)C2CCCCC2)[C@H]1c1ccccc1 [III-118] |  |  |  |  | > 200 | > 6.00 |  | > 6.00 | +++ (≥350) | 
COc1ncc(C2CCC2)cc1CN[C@H]1[C@H](C(C)(C)C)[C@@H](C(=O)O)N(C(=O)[C@H]2CCCCO2)[C@H]1c1ccccc1C [Example I-266] | 5.00 to 6.00 | 5.00 to 6.00 | +++ (≥350) | > 200 |  |  |  |  |  | 
COc1cccc(N[C@@H]2[C@@H](C(C)(C)C)[C@H](C(=O)O)N(C(=O)C3CCCCC3)[C@@H]2c2ccccc2)n1 (racemic) [III-8] |  |  |  |  | < 100 | 5.00 to 6.00 | +++ (≥350) | 5.00 to 6.00 |  | 
COc1ncc(-c2ccccc2F)cc1CN[C@H]1[C@H](C(C)(C)C)[C@@H](C(=O)O)N(C(=O)C2CCCCC2)[C@H]1c1ccccc1F [II-424] |  |  |  |  | 100 to 200 | > 6.00 | +++ (≥350) | > 6.00 |  | 
COc1ccc(C2(C)CCC2)cc1CN[C@H]1[C@H](C(C)(C)C)[C@@H](C(=O)O)N(C(=O)C2CCCCC2)[C@H]1c1ccccc1 [II-462] |  |  |  |  | > 200 | > 6.00 | +++ (≥350) | > 6.00 |  | 
COc1cccc([C@H]2[C@@H](Nc3cccc(OC(F)F)n3)[C@H](C(C)(C)C)[C@@H](C(=O)O)N2C(=O)C2(C)CCCOC2)n1 (mixture of isomers) [III-76] |  |  |  |  | < 100 | < 5.00 | ++ (≥150 and <350) | 5.00 to 6.00 |  | 
COc1cccc([C@@H]2[C@H](Nc3cc(C(F)(F)F)cc(C)n3)[C@@H](C(C)(C)C)[C@H](C(=O)O)N2C(=O)C2CCCCO2)n1 (mixture of isomers) [III-63] |  |  |  |  | < 100 | < 5.00 | + (<150) | < 5.00 |  | 
COc1ccc(Cl)cc1CN[C@H]1[C@H](C(C)(C)C)[C@@H](C(=O)O)N(C(=O)OC(C)C)[C@H]1c1cccnc1N(C)C [II-568] |  |  |  |  | 100 to 200 | 5.00 to 6.00 | ++ (≥150 and <350) | 5.00 to 6.00 |  | 
COc1ccc(C(F)(F)F)cc1CN[C@H]1[C@H](C(C)(C)OC)[C@@H](C(=O)O)N(C(=O)OC(C)C)[C@H]1c1ccccc1 [Example I-174] |  |  |  |  |  | 5.00 to 6.00 |  | 5.00 to 6.00 | +++ (≥350) | > 200

Compound | pEC50 [1] | pEC50 [2] | Maximum % activity (with co-corrector) [3] | Emax (CSE-HRP, without co-corrector) [%] | Emax [4] [%] | pEC50 [5] | Maximum % activity (with co-corrector) [6] | pEC50 [7] | Maximum % activity (with co-corrector) (with co-corrector (2 μM)) | Emax (without co-corrector) [%]
COc1cc(C#N)ccc1CN[C@@H]1[C@@H](C(C)(C)C)[C@H](C(=O)O)N(C(=O)C2CCCCC2)[C@@H]1c1ccccc1 (racemic) [II-74] | 5.00 to 6.00 | 5.00 to 6.00 | +++ (≥350) | < 100 |  |  |  |  |  | 
COc1ccc(Cl)cc1CN[C@@H]1[C@@H](C(C)(C)C)[C@H](C(=O)O)N(C(=O)C2CCCCC2)[C@@H]1c1cccnc1N(C)C (racemic) [III-94] |  |  |  |  | 100 to 200 | 5.00 to 6.00 |  | 5.00 to 6.00 | +++ (≥350) | 
COc1ccc(C(C)(C)C)cc1CN[C@H]1[C@H](C(C)(C)C)[C@@H](C(=O)O)N(C(=O)C(C)CC(F)(F)F)[C@H]1c1ccccc1 (stereo partly shown) [II-304] | 5.00 to 6.00 | 5.00 to 6.00 | +++ (≥350) | > 200 |  |  |  |  |  | 
CC(C)(C)[C@H]1[C@H](NCc2ccc(C#N)cc2F)[C@H](c2ccccc2)N(C(=O)C2CCCCC2)[C@@H]1C(=O)O [III-121] |  |  |  |  | < 100 | < 5.00 |  | 5.00 to 6.00 | ++ (≥150 and <350) | 
COc1ncc(C2CC2)cc1CN[C@H]1[C@H](C(C)(C)C)[C@@H](C(=O)O)N(C(=O)[C@@H]2CCCCO2)[C@H]1c1ccccc1C(C)C [Example 115, (2S,3S,4S,5S)-3-tert-butyl-4-{[(5-cyclopropyl-2-methoxypyridin-3-yl)methyl]amino}-1-[(2S)-oxane-2-carbonyl]-5-[2-(propan-2-yl)phenyl]pyrrolidine-2-carboxylic acid] |  |  |  |  |  | 5.00 to 6.00 |  | > 6.00 | +++ (≥350) | > 200
COc1ccc(-c2ccccc2)cc1CN[C@H]1[C@H](C(C)(C)C)[C@@H](C(=O)O)N(C(=O)C2CCCCC2)[C@H]1c1ccccc1F [II-245] | > 6.00 | > 6.00 | +++ (≥350) | 100 to 200 |  |  |  |  |  | 
COc1ncc(Br)cc1CN[C@H]1[C@H](C(C)(C)OC)[C@@H](C(=O)O)N(C(=O)C2CCCCC2)[C@H]1c1ccccc1 [II-247] | 5.00 to 6.00 | > 6.00 | +++ (≥350) | 100 to 200 |  |  |  |  |  | 
COc1ncc(C2CCC2)cc1CN[C@H]1[C@H](C(C)(C)C)[C@@H](C(=O)O)N(C(=O)[C@@H]2CCCCO2)[C@H]1c1cccc2c1OCC2 [Example I-301] | 5.00 to 6.00 | 5.00 to 6.00 | +++ (≥350) | > 200 |  |  |  |  |  | 
CC(C)(C)[C@@H]1[C@@H](NCc2ccc(Cl)cc2Cl)[C@@H](c2ccccc2)N(C(=O)CC2CCCC2)[C@H]1C(=O)O (racemic) [III-3] |  |  |  |  | < 100 | < 5.00 | ++ (≥150 and <350) | 5.00 to 6.00 |  | 
CC(C)c1ccccc1[C@H]1[C@@H](NCc2cccc3c2OC(C)(C)C3)[C@H](C(C)(C)C)[C@@H](C(=O)O)N1C(=O)[C@@H]1CCCCO1 [Example I-306] | > 6.00 | > 6.00 | +++ (≥350) | > 200 |  |  |  |  |  | 
COc1ncc(C(F)(F)F)cc1CN[C@@H]1[C@@H](C(C)(C)C)[C@H](C(=O)O)N(C(=O)[C@@H]2CCCCO2)[C@@H]1c1ccccc1 [III-165] |  |  |  |  | < 100 | 5.00 to 6.00 |  | 5.00 to 6.00 | ++ (≥150 and <350) | 
COc1ccc(C(C)(C)C)cc1CN[C@H]1[C@H](C(C)(C)C)[C@@H](C(=O)O)N(C(=O)[C@@H]2OCC[C@@H]2c2ccccc2)[C@H]1c1ccccc1 (relative stereo) [Example I-178] |  |  |  |  |  | 5.00 to 6.00 |  | 5.00 to 6.00 | +++ (≥350) | 100 to 200
Cc1cc(C(F)(F)F)cc(N[C@@H]2[C@@H](C(C)(C)C)[C@H](C(=O)O)N(C(=O)C3CCCCC3)[C@@H]2c2ccccc2)[n+]1[O-] (racemic) [III-32] |  |  |  |  | < 100 | 5.00 to 6.00 | ++ (≥150 and <350) | 5.00 to 6.00 |  | 
COc1ccc(C(C)(C)C)cc1CN[C@H]1[C@H](C(C)(C)C)[C@@H](C(=O)O)N(C(=O)[C@@H]2CCC[C@@H](OC(F)(F)F)C2)[C@H]1c1cccnc1OC [II-540] |  |  |  |  | > 200 | 5.00 to 6.00 | +++ (≥350) | > 6.00 |  | 
COc1cc(C(F)(F)F)cc(N[C@@H]2[C@@H](C(C)(C)C)[C@H](C(=O)O)N(C(=O)OC(C)C)[C@@H]2c2ccccc2)n1 (racemic) [Example I-10] |  |  |  |  |  | 5.00 to 6.00 |  | 5.00 to 6.00 | +++ (≥350) | < 100
